Patent US20240114772A1, “ORGANIC ELECTROLUMINESCENT DEVICE” (SFC CO., LTD., priority 2021, published 2024)

Test: Solubility evaluation at room temperature in methyl benzoate and ethyl benzoate
Type: physicochemical
Conditions: for solubility: room temperature, concentration of 2 wt %
Protocol: The solubility of each of the compound prepared in the synthesis examples and the comparative compound [BH1] was measured at room temperature in methyl benzoate and ethyl benzoate. The case in which all the components were dissolved at a concentration of 2 wt % was evaluated as O, and the case in which all the components were not dissolved was evaluated as X, and the results are shown in the following Table 1.

Row | SMILES | solubility with respect to methyl benzoate | solubility (ethyl benzoate) | solubility (methyl benzoate)
1 | c1ccc2c(-c3c4ccccc4c(-c4cccc5ccccc45)c4ccccc34)cccc2c1 [BH1, reference compound] | < 2 wt % |  | 
2 | CC(C)c1cc(-c2c3ccccc3c(-c3cc4ccccc4c4ccccc34)c3ccccc23)cc(C(C)C)c1 [Compound 46] |  | ◯ | ◯
3 | [2H]c1c([2H])c([2H])c(-c2c3ccccc3c(-c3c(CCC)c4ccccc4c4ccccc34)c3ccccc23)c([2H])c1[2H] [Compound 55] |  | ◯ | ◯
